The values below come from US20130171252A1, “Formulation Comprising a Type B Lantibiotic” (NOVACTA […], priority 2010, published 2013).

For orientation: MIC means the least concentration at which growth counts as inhibited. Low readings indicate greater potency, high ones weaker potency. By solubility is commonly meant the concentration that dissolves in the medium under given conditions.

Data set [1] deals with C. diff strain P49. The data set is described as follows: MIC, agar dilution susceptibility testing, C. diff strain P49. The class given is cell-based, Clostridium difficile. The note with it: Wilkins-Chalgren Anaerobe agar, anaerobic, 37° C., 48 hours. Here is the method:
(§1) Susceptibility testing for Clostridium difficile strains was performed by two-fold serial antibiotic dilutions in Wilkins-Chalgren Anaerobe agar under anaerobic conditions. Vancomycin was included as a comparator drug. C. difficile cultures were inoculated onto pre-reduced Braziers (C.C.E.Y.) agar plates and grown at 37° C. for 48 hours under anaerobic conditions. Two to three colonies of the 48 hours cultures were inoculated into 5 ml of pre-reduced Schaedlers Broth and grown at 37° C. for 24 hours under anaerobic conditions. This culture was diluted with pre-reduced 0.9% NaCl to achieve the turbidity of the 0.5 McFarland standard and applied to the drug containing plates at a final inoculum of 10^5 cfu/spot. Drug-free growth control plates were included. The plates were incubated in the anaerobic chamber at 37° C. for 48 hours and examined for growth.
In general terms: In agar dilution, organisms are placed on agar that contains the substance at set levels.

The test system of data set [2] is C. diff strain 027Can. The data set can be described thus: MIC, agar dilution susceptibility testing, C. diff strain 027Can. Type of data set: cell-based, Clostridium difficile. The note with it: Wilkins-Chalgren Anaerobe agar, anaerobic, 37° C., 48 hours, repeat determinations. The protocol:
as §1

Data set [3] has as its system C. diff strain 19126. The data set is described as follows: MIC, agar dilution susceptibility testing, C. diff strain 19126. Type of data set: cell-based, Clostridium difficile. The note with it: Wilkins-Chalgren Anaerobe agar, anaerobic, 37° C., 48 hours, repeat determinations. The protocol:
as §1

Data set [4] has as its system C. diff strain P24. The data set can be described thus: MIC, agar dilution susceptibility testing, C. diff strain P24. The class given is cell-based, Clostridium difficile. To be noted: Wilkins-Chalgren Anaerobe agar, anaerobic, 37° C., 48 hours. The protocol: as §1
Data set [5] relates to C. diff strain E101. The data set is described as follows: MIC, agar dilution susceptibility testing, C. diff strain E101. To be noted: Wilkins-Chalgren Anaerobe agar, anaerobic, 37° C., 48 hours. The class given is cell-based, Clostridium difficile. The protocol: as §1
Data set [6] relates to C. diff strain E4. The data set is described as follows: MIC, agar dilution susceptibility testing, C. diff strain E4. Type of data set: cell-based, Clostridium difficile. To be noted: Wilkins-Chalgren Anaerobe agar, anaerobic, 37° C., 48 hours. The protocol:
as §1

Data set [7] has as its system C. diff strain B32. The data set can be described thus: MIC, agar dilution susceptibility testing, C. diff strain B32. The class given is cell-based, Clostridium difficile. The note with it: Wilkins-Chalgren Anaerobe agar, anaerobic, 37° C., 48 hours. Here is the method:
as §1

Data set [8] has as its system C. diff strain E16. The data set is described as follows: MIC, agar dilution susceptibility testing, C. diff strain E16. Type of data set: cell-based, Clostridium difficile. To be noted: Wilkins-Chalgren Anaerobe agar, anaerobic, 37° C., 48 hours. Here is the method:
as §1

Data set [9] relates to C. diff strain 37779. The data set can be described thus: MIC, agar dilution susceptibility testing, C. diff strain 37779. To be noted: Wilkins-Chalgren Anaerobe agar, anaerobic, 37° C., 48 hours, repeat determinations. The class given is cell-based, Clostridium difficile. The protocol:
as §1

Data set [10] deals with C. diff strain 630. The data set is described as follows: MIC, agar dilution susceptibility testing, C. diff strain 630. Type of data set: cell-based, Clostridium difficile. To be noted: Wilkins-Chalgren Anaerobe agar, anaerobic, 37° C., 48 hours, repeat determinations. The protocol:
as §1

Data set [11] relates to C. diff strain 027SM. The data set can be described thus: MIC, agar dilution susceptibility testing, C. diff strain 027SM. The class given is cell-based, Clostridium difficile. To be noted: Wilkins-Chalgren Anaerobe agar, anaerobic, 37° C., 48 hours. Here is the method: as §1
For data set [12], the system named is C. diff strain P62. The data set is described as follows: MIC, agar dilution susceptibility testing, C. diff strain P62. Type of data set: cell-based, Clostridium difficile. To be noted: Wilkins-Chalgren Anaerobe agar, anaerobic, 37° C., 48 hours. Here is the method: as §1
In data set [13] the test system is C. diff strain P59. The data set can be described thus: MIC, agar dilution susceptibility testing, C. diff strain P59. Type of data set: cell-based, Clostridium difficile. To be noted: Wilkins-Chalgren Anaerobe agar, anaerobic, 37° C., 48 hours. The protocol: as §1
The nature of data set [14]: Dissolution testing of the capsule of Example 1 in simulated gastric fluid. The class given is physicochemical. To be noted: hard gelatine capsule size 00, 50 mg compound 1, 10 mL SGF, 37° C., stirred. Here is the method:
A hard gelatine capsule (size 00) was opened into two segments and compound 1 (50 mg) was weighed into the larger segment. The capsule segment containing compound 1 was sealed by inserting and closing the smaller segment over the larger capsule section. A hard gelatine capsule (size 00) containing up to 500 mg can be prepared employing this method.
The capsule of Example 1 was dropped into a 10 mL of simulated gastric fluid (SGF) at 37° C. […] Samples of the solution/suspension (100 μL) were withdrawn at 1, 2, 3, 4, 5, 6, 7, 8, 9, 10, 15, 20, 25, 30 and 70 minutes after the addition of the capsule to SGF.
The samples were clarified using a bench top centrifuge to remove solid from the suspension. The clarified supernatants were diluted with 50% ethanol and then were analysed by HPLC.

Data set [15] is described as follows: Example 4: stability in SIF over 240 minutes (FIG. 4). The class given is in vitro ADME. To be noted: 37° C., HPLC. Here is the method:
Compound 1 was incubated in SIF at 37° C. for up to 240 minutes. Aliquots were withdrawn from the test sample and diluted with water prior to analysis by HPLC (as described in Example 2). The compound 1 peak area was recorded and was expressed as a percentage with respect to the time zero sample.

A short description of data set [16]: Example 3: solubility in SIF and SGF. The class given is physicochemical. The note with it: target 40 mg/ml. The protocol: 10 mg of compound 1 was suspended in […] Simulated Intestinal Fluid (SIF), and was left on a shaker for 10 minutes, after which time suspension was observed. This was in contrast to an identical sample suspended in SGF which dissolved fully after the same period of time. This sample prepared at a target concentration of 40 mg/ml was centrifuged to remove sediment. The supernatant was then diluted to a target of 1 mg/ml with water and compound 1 content was compared against a 1 mg/mL standard prepared in 50% ethanol (aq) using a HPLC method of Example 2.

The nature of data set [17]: Susceptibility to enzymatic digestion in simulated intestinal fluid (FIG. 1). The class given is in vitro ADME. To be noted: 37° C., HPLC (FIG. 1). Here is the method:
Nisin and the compound of compound 1 were tested for their susceptibility towards enzymatic digestion in the intestine using a simulated intestinal fluid (SIF). The SIF was based on the standard USP solutions for simulated intestinal fluids and its activity was confirmed against Bovine Serum Albumin (Hilger et al, Clin. Exp. Immunol. 2001, 123, 387-94). The compounds were incubated in SIF at 37° C. and their concentrations quantified by analytical HPLC (UV detection at 210 nm using the conditions outlined in Table 1).

Data set [18] in a line: Example 2: solubility and dissolution behaviour from hard gelatin capsule in SGF. The class given is physicochemical. The note with it: 50 mg in size 00 hard gelatin capsule, 10 mL SGF, 37° C. The protocol: The solubility and dissolution behaviour of compound 1 contained in a hard gelatin capsule when suspended in simulated gastric fluid (SGF) has been monitored at 37° C.
Compound 1 (50 mg) was transferred into a size 00 hard gelatin capsule. This capsule represents the lowest dose that is likely to be administered in clinical trials. The capsule was dropped into 10 mL of SGF at 37° C. and the sample was intermittently swirled by hand. Dissolution was monitored visually and by HPLC over a one hour period. For the dissolution experiment monitored by HPLC, the sample was stirred continuously with a magnetic stirrer at 37° C. 100 ul samples were withdrawn from the dissolution experiment and were diluted with 900 ul water. The diluted sample was then centrifuged to remove solid material (mostly gelatin).

≈ marks a conversion by molar mass, not a printed value. Like-named read-outs stand apart in the source and are kept apart here.

Regarding deoxyactagardine B [DAB], the MIC stood at 2 µg/mL in data set [1]; 4 µg/mL in [2]; 4 µg/mL in data set [3]; 2 µg/mL in data set [4]; 2 µg/mL in [5]; 2 µg/mL in data set [6]. The MIC in data set [7] turned out to be 2 µg/mL; in data set [8] it was 2 µg/mL; in data set [9] it was 4 µg/mL; in data set [10] it was 4 µg/mL; in data set [11], 2 µg/mL; in data set [12], 2 µg/mL. The compound also returned an MIC in [13] of 2 µg/mL.

For “Deoxyactagardine B (1,9-diaminononane) monocarboxamide [Compound 7]”, the minimum inhibitory concentration (MIC) in data set [2] (listed as Comp 7) turned out to be 0.5 µg/mL.

In the case of `CCC(C)[C@@H]1NC(=O)C2NC(=O)[C@H](CC(C)C)NC(=O)[C@H](NC(=O)[C@H]3CSC[C@H](N)C(=O)N[C@@H](CO)C(=O)NCC(=O)N[C@@H](Cc4c[nH]c5ccccc45)C(=O)N[C@@H](C(C)C)C(=O)N3)[C@H](C)SC[C@H](NC(=O)[C@H](CCC(=O)O)NC1=O)C(=O)NCC(=O)N[C@@H]1C(=O)N[C@@H](CC(C)C)C(=O)N[C@@H](C(C)C)C(=O)N[C@@H](CS[C@H]2C)C(=O)N[C@@H](C)C(=O)N[C@H](C(=O)NCCCCCCCN)CS[C@H]1C` (stereo partly shown) [Compound 1, Deoxyactagardine B (1,7-diaminoheptane) monocarboxamide], the “time to complete release from the capsule into SGF” value in data set [14] was not above 4 min. Further, the “peak area as percentage with respect to the time zero sample” value in data set [15] is given as “no significant reduction”. For the same compound, the solubility at 10 min in data set [16] (SGF, 10 minutes on shaker, read-out: solubility in SGF) came out at 40 mg/mL (≈ 20.1 mM). Further, the solubility at 10 min in [16] (Simulated Intestinal Fluid (SIF), Simulated Intestinal Fluid pH 6.8, 10 minutes on shaker, supernatant by HPLC, read-out: solubility in SIF) is less than 0.8 mg/mL. In [17], the “stability in SIF” value is given as “essentially stable”. In addition, in data set [18], the “dissolution time in SGF” value was not above 3 min and the “time in which the bulk dissolves in SGF” value is “less than 5 minutes”. Besides, the “time to reach saturation dissolution in SGF” value in data set [18] (HPLC (FIG. 3)) was 3 min.
